Assay results: patent publication US6958345B2, “2-hydroxymethylcyclopropylidene methylpurines and -pyrimidines as antiviral agents” (The Regents of the University of Michigan, priority 1997, dated 2005)

Tested on: HHV-6
Test: HHV-6 ELISA in HSB-2 cells
Format: cell-based, human herpes virus 6 (HHV 6)
Conditions: Homo sapiens, HSB2
Protocol: (c) HHV-6. In this case, enzyme-linked immunosorbent assay (ELISA) was performed in covalent amine plates (Costar, Cambridge, Mass.). The plates were activated by the addition of a homobifunctional crosslinking agent, bis(sulfosuccinimidyl) suberate, which was dissolved at 1 mg/mL in 30 mL of phosphate buffered saline (PBS: 137 mM NaCl, 2.7 mM KCl, 4.3 mM Na2HPO4, 1.4 mM KH2PO4, pH 7.4) and 300 μL of the crosslinker was added to each well in the covalent plate. The crosslinker reacted with the amine function on the plate for 30 min at room temperature. The byproduct, sodium N-hydroxysuccinimide sulfite, was removed by decanting and washing the plate twice with PBS. Samples consisting of 150 μl of mixed suspended HSB2 cells from the original drug-treated plate were solubilized in an equal volume of 10% Triton X-100 in coating buffer (15 mM Na2CO3, […] NaHCO3, pH 9.6). The plate was covered and then incubated for 1 h at 37° C. in a 5% CO2 atmosphere. These binding conditions facilitated covalent attachment of the antigen to the free end of the crosslinker.
After covalent binding, the antigen solution was decanted and the plate was washed six times in HEPES buffered saline (Shipman, C., Jr., Proc. Soc. Exp. Biol. 130:305-310 (1969)) with 0.05% Tween 20 (HBS-T ), soaking for three min for each wash. […] Absorbance in each well was determined at 450/570 nm.

IC50: 15 µM
SMILES: O=C(O)P(=O)(O)O [Foscarnet, reference compound]
